Experimental data from ChEMBL document CHEMBL1687831 (Antimicrob Agents Chemother, 2011).

Assays:
[1] = Inhibition of beta-lactamase SHV1
[2] = Inhibition of acinetobacter-derived cephalosporinase
[3] = Inhibition of beta-lactamase AmpC expressed in Escherichia coli
[4] = Inhibition of beta-lactamase TEM1 expressed in Escherichia coli JM109
[5] = Inhibition of beta-lactamase CTX-M-9 expressed in Escherichia coli BL21(DE3)

Row | Ki [1] [µM] | Ki [2] [µM] | Compound | Ki [3] [µM] | Ki [4] [µM] | Ki [5] [µM]
1 | 9.8 | – | CCN1CCN(C(=O)N[C@H](Cc2ccc(O)cc2)C(=O)NCB2OC(C)(C)C(C)(C)O2)C(=O)C1=O | – | – | –
2 | 17 | 0.6 | CCN1CCN(C(=O)N[C@@H](C(=O)NCB(O)O)c2ccc(O)cc2)C(=O)C1=O [CEFOPERAZONE BATSI] | – | – | –
3 | – | 0.31 | CC(C)(O/N=C(\C(=O)NCB(O)O)c1csc(N)n1)C(=O)O [CEFTAZIDIME BATSI] | 0.02 | 0.39 | 0.015
